How the values were obtained:
[1] = molecular target: T1, cGAS (Homo sapiens, UniProt Q8N884); experiment: In vitro inhibition assay of cGAS activity (cGAMP production, RapidFire mass spectrometry); format: biochemical; set-up: Insert cDNA encoding full-length of human cGAS; His6; made in house; host or cells: E. coli BL21(DE3); conditions: 10 nM recombinant human cGAS, 60 nM 75-bp dsDNA, 50 μM ATP, 50 μM GTP, 3 hrs
Procedure, shortened: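 His6-tagged full-length human cGAS (10 nM, E. coli-expressed) was incubated for 3 hrs at ambient temperature with 60 nM 75-bp dsDNA, 50 μM ATP and 50 μM GTP in Tris pH 7.5/MgCl2 buffer with compound dilutions. cGAMP was quantified by RapidFire mass spectrometry against an internal standard, and IC50 was obtained by 4-parameter logistic fit.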

[2] = molecular target: T1, cGAS; experiment: Cellular assay to measure cGAS activity (IFNb AlphaLISA in THP1 cells stimulated by RDG-Adenovirus-GFP); format: cell-based; set-up: host or cells: THP1 cells differentiated with PMA and stimulated with RDG-Adenovirus-GFP; conditions: PMA-differentiated THP1 cells, RDG-Adenovirus-GFP at 1000 MOI; inhibition of IFNb production as marker for cGAS activity
Procedure, shortened: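 PMA-differentiated THP1 cells were infected with RDG-Adenovirus-GFP at 1000 MOI for 4 h, then exposed overnight to test compounds. IFNb in the supernatant was quantified by AlphaLISA as a cGAS activity marker, and IC50 was fitted with a 4-parameter logistic equation.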

T1 sequence (Q8N884 whole entry): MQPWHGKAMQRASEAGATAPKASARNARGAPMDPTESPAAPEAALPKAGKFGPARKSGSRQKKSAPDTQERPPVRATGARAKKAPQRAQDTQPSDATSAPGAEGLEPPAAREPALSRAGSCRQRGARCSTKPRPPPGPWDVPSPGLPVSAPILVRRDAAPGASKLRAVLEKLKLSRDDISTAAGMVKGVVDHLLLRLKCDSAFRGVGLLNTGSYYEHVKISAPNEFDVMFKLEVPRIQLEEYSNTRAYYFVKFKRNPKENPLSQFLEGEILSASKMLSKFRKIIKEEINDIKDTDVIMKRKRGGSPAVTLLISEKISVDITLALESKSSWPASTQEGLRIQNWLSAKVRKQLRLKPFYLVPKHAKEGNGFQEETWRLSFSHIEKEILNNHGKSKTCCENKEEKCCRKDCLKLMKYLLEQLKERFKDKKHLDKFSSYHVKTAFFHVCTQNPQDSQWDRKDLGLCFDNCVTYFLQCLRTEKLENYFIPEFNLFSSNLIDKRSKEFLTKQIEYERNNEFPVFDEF

| SMILES | IC50 [1] | IC50 [2] |
| --- | --- | --- |
| CC1C(=O)NCCc2c1c1c(NCc3cnc[nH]3)cc(Cl)c(Cl)c1n2C (centres unmarked) [Example 91, 10-(((1H-Imidazol-5-yl)methyl)amino)-7,8-dichloro-1,6-dimethyl-3,4,5,6-tetrahydroazepino[4,5-b]indol-2(1H)-one] | 20.7 nM | 1190 nM |
| COCC[C@H]1CNC(=O)[C@H](C)c2c1[nH]c1c(Cl)c(Cl)cc(NCCO)c21 (single isomer, unassigned) [Example 171] | 7.84 nM | 483 nM |
| Cn1ncc(-c2cc(Cl)c(Cl)c3[nH]c4c(c23)CC(=O)NCC4CCNCC(F)(F)F)n1 (centres unmarked) [Example 112, 7,8-Dichloro-10-(2-methyl-2H-1,2,3-triazol-4-yl)-5-(2-((2,2,2-trifluoroethyl)amino)ethyl)-3,4,5,6-tetrahydroazepino[4,5-b]indol-2(1H)-one] | 51.5 nM | 2600 nM |
| COC(=O)CC1CNC(=O)Cc2c1[nH]c1c(Cl)c(Cl)cc(CC#N)c21 (centres unmarked) [Example 176, Methyl 2-(7,8-dichloro-10-(cyanomethyl)-2-oxo-1,2,3,4,5,6-hexahydroazepino[4,5-b]indol-5-yl)acetate] | 38.9 nM | 7110 nM |
| CCC1CNC(=O)Cc2c1[nH]c1c(Cl)c(Cl)cc(NCCO)c21 (centres unmarked) [Example 163, 7,8-Dichloro-5-ethyl-10-((2-hydroxyethyl)amino)-3,4,5,6-tetrahydroazepino[4,5-b]indol-2(1H)-one] | 23.1 nM | 1620 nM |
| C[C@@H]1C(=O)NCCc2[nH]c3c(Cl)c(Cl)cc(OCC#N)c3c21 (single isomer, unassigned) [Example 16A] | 2.18 nM | 871 nM |
| COCC(=O)Nc1cc(Cl)c(Cl)c2[nH]c3c(c12)[C@@H](C)C(=O)NCC3 (single isomer, unassigned) [Example 41] | 7170 nM | > 10000 nM |
| C[C@@H]1CNC(=O)[C@@H](C)c2c1[nH]c1c(Cl)c(Cl)cc(CC#N)c21 (single isomer, unassigned) [Example 153] | 2420 nM | > 10000 nM |
| COCC(=O)Nc1cc(Cl)c(Cl)c2[nH]c3c(c12)[C@@H](C)C(=O)NCC3 (single isomer, unassigned) [Example 40] | 27.3 nM | 787 nM |
| Cn1c2c(c3c(CC#N)cc(Cl)c(Cl)c31)CC(=O)NC[C@H]2CCO (single isomer, unassigned) [Example 122] | 934 nM | 2940 nM |
| C[C@@H]1CNC(=O)Cc2c1[nH]c1c(Cl)c(Cl)cc(-c3cnn(C)n3)c21 (single isomer, unassigned) [Example 146] | 27.2 nM | 300 nM |
| C[C@H]1C(=O)NCCc2[nH]c3c(Cl)c(Cl)cc(N[C@@H]4CCOC4)c3c21 (single isomer, unassigned) [Example 65] | 890 nM | ≥ 10000 nM |
| C[C@H]1C(=O)NCCc2[nH]c3c(Cl)c(Cl)cc(-c4cnn(C)n4)c3c21 [Example 38, (R)-7,8-Dichloro-1-methyl-10-(2-methyl-2H-1,2,3-triazol-4-yl)-3,4,5,6-tetrahydroazepino[4,5-b]indol-2(1H)-one Or (S′)-7,8-Dichloro-1-methyl-10-(2-methyl-2H-1,2,3-triazol-4-yl)-3,4,5,6-tetrahydroazepino[4,5-b]indol-2(1H)-one] | 1650 nM | 9800 nM |
| C[C@@H]1C(=O)NCCc2[nH]c3c(Cl)c(Cl)cc(N[C@H]4CCOC4)c3c21 (single isomer, unassigned) [Example 63] | 1670 nM | > 10000 nM |
| O=C1Cc2c([nH]c3c(Cl)c(Cl)cc(-c4cn[nH]c4)c23)CCN1 [Example 19, 7,8-Dichloro-10-(1H-pyrazol-4-yl)-3,4,5,6-tetrahydroazepino[4,5-b]indol-2(1H)-one] | 93.6 nM | > 10000 nM |

Further lines, results first:

| IC50 [1] | IC50 [2] | SMILES |
| --- | --- | --- |
| ≥ 39800 nM | > 10000 nM | C[C@H]1C(=O)NCC(C)(C)c2[nH]c3c(Cl)c(Cl)cc(NC(=O)CO)c3c21 (single isomer, unassigned) [Example 132] |
| 32.5 nM | 910 nM | C[C@@H]1C(=O)NCCc2[nH]c3c(Cl)c(Cl)cc(OC[C@@H](C)O)c3c21 (single isomer, unassigned) [Example 82] |
| 34.5 nM | 1910 nM | CC1C(=O)NCCc2[nH]c3c(Cl)c(Cl)cc(N[C@H]4CCOC4)c3c21 (mixture of isomers) [Example 61, 7,8-Dichloro-1-methyl-10-(((S)-tetrahydrofuran-3-yl)amino)-3,4,5,6-tetrahydroazepino[4,5-b]indol-2(1H)-one] |
| 9050 nM | 582 nM | CC(=O)OCCCOc1cc(Cl)c(Cl)c2[nH]c3c(c12)C(C)C(=O)NCC3 (racemic) [Example 13, 3-((7,8-Dichloro-1-methyl-2-oxo-1,2,3,4,5,6-hexahydroazepino[4,5-b]indol-10-yl)oxy)propyl acetate] |
| 29.1 nM | 2220 nM | CC1C(=O)NCCc2[nH]c3c(Cl)c(Cl)c(F)c(NCCO)c3c21 (racemic) [Example 52, 7,8-Dichloro-9-fluoro-10-((2-hydroxyethyl)amino)-1-methyl-3,4,5,6-tetrahydroazepino[4,5-b]indol-2(1H)-one] |
| 3440 nM | > 10000 nM | C[C@@H]1C(=O)NCCc2[nH]c3c(Cl)c(Cl)cc(OCC(F)(F)CO)c3c21 (single isomer, unassigned) [Example 74] |
| 42.1 nM | 558 nM | CC1C(=O)NCCc2[nH]c3c(Cl)c(Cl)cc(NCc4cocn4)c3c21 (centres unmarked) [Example 57, 7,8-Dichloro-1-methyl-10-((oxazol-4-ylmethyl)amino)-3,4,5,6-tetrahydroazepino[4,5-b]indol-2(1H)-one] |
| 1090 nM | 8140 nM | CCOc1cc(Cl)c(Cl)c2[nH]c3c(c12)[C@H](C)C(=O)NCC3 (single isomer, unassigned) [Example 15B] |
| 26.2 nM | 1130 nM | COCC[C@@H]1CNC(=O)[C@@H](C)c2c1[nH]c1c(Cl)c(Cl)cc(NCCO)c21 (racemic) [Example 169, trans-7,8-Dichloro-10-((2-hydroxyethyl)amino)-5-(2-methoxyethyl)-1-methyl-3,4,5,6-tetrahydroazepino[4,5-b]indol-2(1H)-one] |
| 23.7 nM | 793 nM | CC1C(=O)NCCc2[nH]c3c(Cl)c(Cl)cc(OC[C@H]4CCO4)c3c21 (stereo partly drawn) [Example 180, 7,8-Dichloro-1-methyl-10-(((R)-oxetan-2-yl)methoxy)-3,4,5,6-tetrahydroazepino[4,5-b]indol-2(1H)-one] |
| 19.7 nM | 341 nM | C[C@H]1CNC(=O)[C@H](C)c2c1[nH]c1c(Cl)c(Cl)cc(NC(=O)CO)c21 (racemic) [Example 158, trans-N-(7,8-dichloro-1,5-dimethyl-2-oxo-1,2,3,4,5,6-hexahydroazepino[4,5-b]indol-10-yl)-2-hydroxyacetamide] |
| 6680 nM | > 10000 nM | C[C@@H]1CNC(=O)[C@@H](C)c2c1[nH]c1c(Cl)c(Cl)cc(NCCO)c21 (single isomer, unassigned) [Example 157] |
| 14.2 nM | 591 nM | COCCOc1cc(Cl)c(Cl)c2[nH]c3c(c12)C(C)C(=O)NCC3 (centres unmarked) [Example 79, 7,8-Dichloro-10-(2-methoxyethoxy)-1-methyl-3,4,5,6-tetrahydroazepino[4,5-b]indol-2(1H)-one] |
